In patent publication US20250121078A1, “PEPTIDE DRUG CONJUGATES AND THEIR USES” (priority 2023, published 2025):
Where a SMILES comes first, the peptide text is derived from it. [ ]: non-standard residue; d: D form. The star is where a group is joined. Paclitaxel(2'-O-succinyl) = CC(=O)O[C@H]1C(=O)[C@@]2(C)[C@H]([C@H](OC(=O)c3ccccc3)[C@]3(O)C[C@H](OC(=O)[C@H](OC(=O)CCC(=O)*)[C@@H](NC(=O)c4ccccc4)c4ccccc4)C(C)=C1C3(C)C)[C@]1(OC(C)=O)CO[C@@H]1C[C@@H]2O; Propanoyl(3-SS-DM1) = COc1cc2cc(c1Cl)N(C)C(=O)C[C@H](OC(=O)[C@H](C)N(C)C(=O)CCSSCCC(=O)*)[C@]1(C)O[C@H]1[C@H](C)[C@@H]1C[C@@](O)(NC(=O)O1)[C@H](OC)/C=C/C=C(\C)C2; d(hArg(Et2)) = CCN=C(NCC)NCCCC[C@@H](N)C(=O)O; hArg(Et2) = CCN=C(NCC)NCCCC[C@H](N)C(=O)O; dPhe(4-Cl) = N[C@H](Cc1ccc(Cl)cc1)C(=O)O; d2Nal = N[C@H](Cc1ccc2ccccc2c1)C(=O)O; dCit = NC(=O)NCCC[C@@H](N)C(=O)O; d3Pal = N[C@H](Cc1cccnc1)C(=O)O

target: T1, LHRHR, also known as GnRHR (Homo sapiens, UniProt P30968); assay: Radioligand binding assay ([125I]-[D-Trp6]-LHRH displacement); settings: not given
T1 sequence (P30968 1-328): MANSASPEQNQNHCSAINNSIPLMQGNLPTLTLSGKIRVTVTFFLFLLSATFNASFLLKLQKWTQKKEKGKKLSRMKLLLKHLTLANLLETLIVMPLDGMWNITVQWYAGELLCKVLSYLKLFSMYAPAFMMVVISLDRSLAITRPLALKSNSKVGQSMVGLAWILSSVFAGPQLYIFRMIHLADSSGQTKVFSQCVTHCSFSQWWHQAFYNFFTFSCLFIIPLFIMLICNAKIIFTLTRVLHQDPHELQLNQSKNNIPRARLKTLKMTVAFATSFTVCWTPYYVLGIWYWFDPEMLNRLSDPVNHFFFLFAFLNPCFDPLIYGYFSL
Description: An amount of 2 μg of a purified membrane with LHRHR, also known as GnRHR, was incubated with 0.18 nM [125I]-[D-Trp6]-LHRH and compounds of interest in the incubation buffer (50 mM HEPES, pH 7.4, 5 mM MgCl2, 1 mM CaCl2, and 0.2% BSA). The reaction mixtures were incubated for 1 h at 25° C. and then were transferred to a 96-well GF/B filter plate (Millipore Corp., Billerica, MA, USA), which were terminated by manifold filtration and washed with a wash buffer (50 mM HEPES, pH 7.4, and 100 mM NaCl) for six times. The radioactivity bound to the filter was measured by a Topcount® system (PerkinElmer Inc., Waltham, MA, USA). IC50 values were determined by the concentration of a compound required to inhibit 50% of the specific binding of [125I]-[D-Trp6]-LHRH and calculated by nonlinear regression (GraphPad Software, San Diego, CA, USA). The design of these drug conjugates is to actively targeting LHRH-receptor at tumor site and facilitate drug conjugate accumulation in situ. Therefore, selective and strong binding of the synthetic peptide ligand with the receptor is important to allow enrichment of these conjugates, followed by release of the drug payload in the tumor microenvironment.
Compounds of the invention have a binding as low as 0.17 nM.

Structure (SMILES)	IC50 [nM]
COc1cc2cc(c1Cl)N(C)C(=O)C[C@H](OC(=O)[C@H](C)N(C)C(=O)CCSC(=O)OCc1ccc(O[Si](OCCCn3nnc4c3CC[C@@H]3[C@H](CC4)[C@H]3COC(=O)N(CCCC[C@H](NC(=O)[C@H](CC(C)C)NC(=O)[C@@H](Cc3ccc(NC(N)=O)cc3)NC(=O)[C@H](Cc3ccc(NC(=O)[C@@H]4CC(=O)NC(=O)N4)cc3)NC(=O)[C@H](CO)NC(=O)[C@@H](Cc3cccnc3)NC(=O)[C@@H](Cc3ccc(Cl)cc3)NC(=O)[C@@H](Cc3ccc4ccccc4c3)NC(C)=O)C(=O)N3CCC[C@H]3C(=O)N[C@H](C)C(N)=O)C(C)C)(C(C)C)C(C)C)cc1)[C@]1(C)O[C@H]1[C@H](C)[C@@H]1C[C@@](O)(NC(=O)O1)[C@H](OC)/C=C/C=C(\C)C2 [Compound 19]	1 to 10
CCNC(=NCCCC[C@H](NC(=O)[C@H](CC(C)C)NC(=O)[C@@H](CCCCNC(=O)CCSSCCC(=O)N(C)[C@@H](C)C(=O)O[C@H]1CC(=O)N(C)c2cc(cc(OC)c2Cl)C/C(C)=C/C=C/[C@@H](OC)[C@@]2(O)C[C@H](OC(=O)N2)[C@@H](C)[C@@H]2O[C@@]12C)NC(=O)[C@H](Cc1ccc(O)cc1)NC(=O)[C@H](CO)NC(=O)[C@@H](Cc1cccnc1)NC(=O)[C@@H](Cc1ccc(Cl)cc1)NC(=O)[C@@H](Cc1ccc2ccccc2c1)NC(C)=O)C(=O)N1CCC[C@H]1C(=O)N[C@H](C)C(N)=O)NCC [Compound 23] (Ac-[d2Nal][dPhe(4-Cl)][d3Pal]SY[dK](Propanoyl(3-SS-DM1))L[hArg(Et2)]P[dA]-NH2)	0.1 to 1
COc1cc2cc(c1Cl)N(C)C(=O)C[C@H](OC(=O)[C@H](C)N(C)C(=O)CCSSCCC(=O)NCCCC[C@@H](NC(=O)[C@H](Cc1ccc(O)cc1)NC(=O)[C@H](CO)NC(=O)[C@@H](Cc1cccnc1)NC(=O)[C@@H](Cc1ccc(Cl)cc1)NC(=O)[C@@H](Cc1ccc3ccccc3c1)NC(C)=O)C(=O)N[C@@H](CC(C)C)C(=O)N[C@H](CCCNC(=N)N)C(=O)N1CCC[C@H]1C(=O)N[C@H](C)C(N)=O)[C@]1(C)O[C@H]1[C@H](C)[C@@H]1C[C@@](O)(NC(=O)O1)[C@H](OC)/C=C/C=C(\C)C2 [Compound 24] (Ac-[d2Nal][dPhe(4-Cl)][d3Pal]SY[dK](Propanoyl(3-SS-DM1))L[dR]P[dA]-NH2)	1 to 10

same assay, conditions: purified membrane with LHRHR, 0.18 nM [125I]-[D-Trp6]-LHRH, 1 h at 25° C.; read-out: Binding Assay

Structure (SMILES)	IC50 [nM]
CC(=O)N[C@H](Cc1ccc2ccccc2c1)C(=O)N[C@H](Cc1ccc(Cl)cc1)C(=O)N[C@H](Cc1cccnc1)C(=O)N[C@@H](CO)C(=O)N[C@H](CCCCN)C(=O)N[C@H](CCCNC(N)=O)C(=O)N[C@@H](CC(C)C)C(=O)N[C@@H](CCCNC(=N)N)C(=O)N1CCC[C@H]1C(=O)N[C@H](C)C(N)=O [Compound 1] (Ac-[d2Nal][dPhe(4-Cl)][d3Pal]S[dK][dCit]LRP[dA]-NH2)	> 100
CCNC(=NCCCC[C@@H](NC(=O)[C@@H](CCCCNC(=O)CCC(=O)O[C@@H](C(=O)O[C@H]1C[C@@]2(O)[C@@H](OC(=O)c3ccccc3)[C@@H]3[C@]4(OC(C)=O)CO[C@@H]4C[C@H](O)[C@@]3(C)C(=O)[C@H](OC(C)=O)C(=C1C)C2(C)C)[C@@H](NC(=O)c1ccccc1)c1ccccc1)NC(=O)[C@H](CO)NC(=O)[C@@H](Cc1cccnc1)NC(=O)[C@@H](Cc1ccc(Cl)cc1)NC(=O)[C@@H](Cc1ccc2ccccc2c1)NC(C)=O)C(=O)N[C@@H](CC(C)C)C(=O)N[C@H](CCCCN=C(NCC)NCC)C(=O)N1CCC[C@H]1C(=O)N[C@H](C)C(N)=O)NCC [Compound 7] (Ac-[d2Nal][dPhe(4-Cl)][d3Pal]S[dK](Paclitaxel(2'-O-succinyl))[d(hArg(Et2))]L[d(hArg(Et2))]P[dA]-NH2)	> 100
COc1cccc2c1C(=O)c1c(O)c3c(c(O)c1C2=O)C[C@@](O)(C(=O)CO)C[C@@H]3O[C@H]1C[C@H](NC(=O)OCc2ccc(NC(=O)[C@H](C)NC(=O)[C@@H](NC(=O)c3ccc(COCCOCCOCCn4nnc5c4CC[C@H]4[C@@H](CC5)[C@@H]4COC(=O)NCCCC[C@@H](NC(=O)[C@H](Cc4ccc(O)cc4)NC(=O)[C@H](CO)NC(=O)[C@@H](Cc4cccnc4)NC(=O)[C@@H](Cc4ccc(Cl)cc4)NC(=O)[C@@H](Cc4ccc5ccccc5c4)NC(C)=O)C(=O)N[C@@H](CC(C)C)C(=O)N[C@@H](CCCNC(=N)N)C(=O)N4CCC[C@H]4C(=O)N[C@H](C)C(N)=O)cc3)C(C)C)cc2)[C@H](O)[C@H](C)O1 [Compound 17]	0.1 to 1
COc1cc2cc(c1Cl)N(C)C(=O)C[C@H](OC(=O)[C@H](C)N(C)C(=O)CCSC(=O)OC[C@H]1[C@@H]3CCc4c(nnn4CCCC[C@@H](NC(=O)[C@H](Cc4ccc(O)cc4)NC(=O)[C@H](CO)NC(=O)[C@@H](Cc4cccnc4)NC(=O)[C@@H](Cc4ccc(Cl)cc4)NC(=O)[C@@H](Cc4ccc5ccccc5c4)NC(C)=O)C(=O)N[C@@H](CC(C)C)C(=O)N[C@@H](CCCNC(=N)N)C(=O)N4CCC[C@H]4C(=O)N[C@H](C)C(N)=O)CC[C@@H]31)[C@]1(C)O[C@H]1C(C)[C@@H]1C[C@@](O)(NC(=O)O1)[C@H](OC)/C=C/C=C(\C)C2 (stereo partly shown) [Compound 20]	0.1 to 1

Other lines, results leading:

IC50 [nM]	Structure (SMILES)
0.1 to 1	CC(=O)N[C@H](Cc1ccc2ccccc2c1)C(=O)N[C@H](Cc1ccc(Cl)cc1)C(=O)N[C@H](Cc1cccnc1)C(=O)N[C@@H](CO)C(=O)N[C@@H](Cc1ccc(O)cc1)C(=O)N[C@H](CCCCN)C(=O)N[C@@H](CC(C)C)C(=O)N[C@@H](CCCNC(=N)N)C(=O)N1CCC[C@H]1C(=O)N[C@H](C)C(N)=O [Compound 2] (Ac-[d2Nal][dPhe(4-Cl)][d3Pal]SY[dK]LRP[dA]-NH2)
10 to 100	CC(=O)N[C@H](Cc1ccc2ccccc2c1)C(=O)N[C@H](Cc1ccc(Cl)cc1)C(=O)N[C@H](Cc1cccnc1)C(=O)N[C@@H](CO)C(=O)N[C@@H](Cc1ccc(O)cc1)C(=O)N[C@H](CCCNC(N)=O)C(=O)N[C@H](CCCCN)C(=O)N[C@@H](CCCNC(=N)N)C(=O)N1CCC[C@H]1C(=O)N[C@H](C)C(N)=O [Compound 3] (Ac-[d2Nal][dPhe(4-Cl)][d3Pal]SY[dCit][dK]RP[dA]-NH2)
> 100	CCNC(=NCCCC[C@@H](NC(=O)[C@H](CCCCN)NC(=O)[C@H](CO)NC(=O)[C@@H](Cc1cccnc1)NC(=O)[C@@H](Cc1ccc(Cl)cc1)NC(=O)[C@@H](Cc1ccc2ccccc2c1)NC(C)=O)C(=O)N[C@@H](CC(C)C)C(=O)N[C@H](CCCCN=C(NCC)NCC)C(=O)N1CCC[C@H]1C(=O)N[C@H](C)C(N)=O)NCC [Compound 4] (Ac-[d2Nal][dPhe(4-Cl)][d3Pal]SK[d(hArg(Et2))]L[d(hArg(Et2))]P[dA]-NH2)
> 100	CCNC(=NCCCC[C@@H](NC(=O)[C@H](Cc1ccc(O)cc1)NC(=O)[C@H](CO)NC(=O)[C@@H](Cc1cccnc1)NC(=O)[C@@H](Cc1ccc(Cl)cc1)NC(=O)[C@@H](Cc1ccc2ccccc2c1)NC(C)=O)C(=O)N[C@H](CCCCN)C(=O)N[C@H](CCCCN=C(NCC)NCC)C(=O)N1CCC[C@H]1C(=O)N[C@H](C)C(N)=O)NCC [Compound 5] (Ac-[d2Nal][dPhe(4-Cl)][d3Pal]SY[d(hArg(Et2))][dK][d(hArg(Et2))]P[dA]-NH2)
0.1 to 1	CCNC(=NCCCC[C@H](NC(=O)[C@H](CC(C)C)NC(=O)[C@@H](CCCCN)NC(=O)[C@H](Cc1ccc(O)cc1)NC(=O)[C@H](CO)NC(=O)[C@@H](Cc1cccnc1)NC(=O)[C@@H](Cc1ccc(Cl)cc1)NC(=O)[C@@H](Cc1ccc2ccccc2c1)NC(C)=O)C(=O)N1CCC[C@H]1C(=O)N[C@H](C)C(N)=O)NCC [Compound 12] (Ac-[d2Nal][dPhe(4-Cl)][d3Pal]SY[dK]L[hArg(Et2)]P[dA]-NH2)
10 to 100	CC(=O)N[C@H](Cc1ccc2ccccc2c1)C(=O)N[C@H](Cc1ccc(Cl)cc1)C(=O)N[C@H](Cc1cccnc1)C(=O)N[C@@H](CO)C(=O)N[C@@H](Cc1ccc(O)cc1)C(=O)N[C@H](CCCCN)C(=O)N[C@@H](CC(C)C)C(=O)N[C@H](CCCNC(=N)N)C(=O)N1CCC[C@H]1C(=O)N[C@H](C)C(N)=O [Compound 13] (Ac-[d2Nal][dPhe(4-Cl)][d3Pal]SY[dK]L[dR]P[dA]-NH2)
